Laboratory results taken from publication PMC3066128 (PLoS Biology, 2011).
Like-named read-outs stand apart in the source and are kept apart here.

What was measured:
α1 GlyR F63A [1] = details: IC50 α1 GlyR F63A (ref 23) over wt
α1 GlyR R65A [2] = details: ref Grudzinska et al. 23; cited from earlier work
human α7 nAChR = target: T1, human α7 nAChR (Homo sapiens, UniProt P36544); test: biochemical; type: binding
T1 construct: expressed in transfected cells
Description: Human neuroblastoma cells (SH-SY5Y) stably expressing human α7 nAChR were obtained from Christian Fuhrer (Department of Neurochemistry, Brain Research Institute, University of Zurich). The cells were maintained in DMEM/F12 (Dulbecco's Modified Eagle Medium / Nutrient Mixture F-12) supplemented with 10% fetal calf serum (FCS), 50 IU/mL penicillin, 50 µg/mL streptomycin and 0.1 mg/ml geneticin in 5% CO2 humidified atmosphere at 37°C. Batches of cells from several passages were washed 3x with PBS, harvested and after centrifuging aliquots, the cell-pellets were stored at -80°C until use. Although there appeared to be little batch-to-batch variation, only one passage was used for the triplicate experiments as described below. […] The SPA beads were allowed to settle for 2-4 h and the radioactivity was measured in a Wallac 1450 MicroBeta liquid scintillation counter. All radioligand binding data were evaluated by a nonlinear, least-squares curve fitting procedure using Graphpad Prism (version 5.0a, GraphPad Software, Inc., San Diego, CA). […]
Frozen cell pellets with the human α7 nAChR were thawed, homogenized in ice-cold binding buffer, sonicated before use and added at 0.1 mg/ml. […] After drying the filter-plates, scintillation fluid (MicroScint, Perkin Elmer) was added and the radioactivity was measured as above.

α1 GlyR F63A [3] = details: ref Grudzinska et al. 23; cited from earlier work
human α1 GlyR F44A = human α1 GlyR F44A (Homo sapiens, UniProt P23415, F72A); test: cell-based; details: for mut/wt: IC50 α1 GlyR F44A over wt
Description: (§1) To address this question, we performed alanine-scanning mutagenesis of the homologous residues in the human GlyR or nAChR using structure-based sequence alignments with AChBP (see Figure S1). The two-electrode voltage-clamp technique was used to measure ligand potency on wild type and mutant GlyR or nAChR expressed in Xenopus oocytes. […] One of these mutants, F207A, was previously characterized in the work from Grundzinska et al..
(§2) Competitive binding assays with ^3H-epibatidine were carried out as previously published with minor modifications (see Text S1). Electrophysiological assays were carried out using the two-electrode voltage clamp technique. The cDNA encoding human α1 GlyR was subcloned into pGEM-HE for oocyte expression with a PCR strategy and verified by sequencing. The cDNA was linearized with NheI and transcribed with the T7 mMessage mMachine kit from Ambion. The cDNA encoding the human α7 nAChR was cloned into pMXT and linearized with BamHI for transcription with the SP6 mMessage mMachine kit from Ambion. All mutants were engineered using a Quikchange method (Stratagene) and verified by sequencing. Recordings were obtained from oocytes 2–5 d after injection with 50 nl of ∼1 ng/nl RNA. […] Student's t test was used for statistical comparison of paired observations.

human α1 GlyR S129A = human α1 GlyR S129A (Homo sapiens, UniProt P23415, S157A); test: cell-based; details: for mut/wt: IC50 α1 GlyR S129A over wt
Description: as §1, §2

human α1 GlyR S158A = human α1 GlyR S158A (Homo sapiens, UniProt P23415, S186A); test: cell-based; details: for mut/wt: IC50 α1 GlyR S158A over wt
Description: as §1, §2

human α1 GlyR F207A = human α1 GlyR F207A (Homo sapiens, UniProt P23415, F235A); test: cell-based
Description: as §1, §2

human α1 GlyR Q67A = human α1 GlyR Q67A (Homo sapiens, UniProt P23415, Q95A); test: cell-based; details: for mut/wt: IC50 α1 GlyR Q67A over wt
Description: as §1, §2

human α1 GlyR I210A = human α1 GlyR I210A (Homo sapiens, UniProt P23415, I238A); test: cell-based
Description: as §1, §2

human α1 GlyR L127A = human α1 GlyR L127A (Homo sapiens, UniProt P23415, L155A); test: cell-based; details: for mut/wt: IC50 α1 GlyR L127A over wt
Description: as §1, §2

human α1 GlyR A101F = human α1 GlyR A101F (Homo sapiens, UniProt P23415, A129F); test: cell-based; details: for mut/wt: IC50 α1 GlyR A101F over wt
Description: as §1, §2

human α1 GlyR wt = human α1 GlyR wt (Homo sapiens, UniProt P23415); test: cell-based
Description: as §1, §2

human α1 GlyR Q177A = human α1 GlyR Q177A (Homo sapiens, UniProt P23415, Q205A); test: cell-based; details: for mut/wt: IC50 α1 GlyR Q177A over wt
Description: as §1, §2

α1 GlyR R65A [4] = details: IC50 α1 GlyR R65A (ref 23) over wt
Ls-AChBP = Ls-AChBP (Lymnaea stagnalis, UniProt P58154); test: biochemical; type: binding
Description: as §2
Human neuroblastoma cells (SH-SY5Y) stably expressing human α7 nAChR were obtained from Christian Fuhrer (Department of Neurochemistry, Brain Research Institute, University of Zurich). […] The SPA beads were allowed to settle for 2-4 h and the radioactivity was measured in a Wallac 1450 MicroBeta liquid scintillation counter.

human α1 GlyR = details: taken from previous study; cited from earlier work
human α7 nAChR G167A = target: T2, human α7 nAChR G167A (Homo sapiens, UniProt P36544, G189A); test: Two-electrode voltage clamp, α7 nAChR G167A in Xenopus oocytes; type: cell-based; details: co-applied with EC50 acetylcholine
T2 construct: expressed in transfected cells; host or cells: Xenopus oocytes injected with cRNA (pMXT)
Source text: as §1
(§3) For d-TC, previous mutagenesis studies have been carried out either on the muscle-type nAChR [1] or 5-HT3R [5],[12]. […] Both model systems either complicate the mutational analysis or make it difficult to derive conclusions that can be generalized to other CLRs. Here, we chose the human α7 nAChR to characterize the effect of homologous contact mutations on the potency of d-TC. The α7 nAChR, which is also a target of d-TC [4], is closely related to Ac-AChBP and is an attractive model system to extrapolate the results obtained from our X-ray crystal structures.
(§4) Competitive binding assays with ^3H-epibatidine were carried out as previously published with minor modifications (see Text S1). Electrophysiological assays were carried out using the two-electrode voltage clamp technique. The cDNA encoding human α1 GlyR was subcloned into pGEM-HE for oocyte expression with a PCR strategy and verified by sequencing. […]

human α7 nAChR E193A = target: T3, human α7 nAChR E193A (Homo sapiens, UniProt P36544, E215A); test: Two-electrode voltage clamp, α7 nAChR E193A in Xenopus oocytes; type: cell-based; details: co-applied with EC50 acetylcholine
T3 construct: expressed in transfected cells; host or cells: Xenopus oocytes injected with cRNA (pMXT)
Source text: as §1, §3, §4

human α7 nAChR Q117A = target: T4, human α7 nAChR Q117A (Homo sapiens, UniProt P36544, Q139A); test: Two-electrode voltage clamp, α7 nAChR Q117A in Xenopus oocytes; type: cell-based; details: co-applied with EC50 acetylcholine
T4 construct: expressed in transfected cells; host or cells: Xenopus oocytes injected with cRNA (pMXT)
Source text: as §1, §3, §4

5-HT3R = details: human versus mouse 5-HT3R; cited from earlier work
muscle-type nAChR = tested on: muscle-type nAChR; set-up: method as in PMID 8415719; details: heteropentameric muscle-type nAChR; cited from earlier work
human α7 nAChR wt = target: T5, human α7 nAChR wt (Homo sapiens, UniProt P36544); test: Two-electrode voltage clamp, wild type α7 nAChR in Xenopus oocytes; type: cell-based; details: co-applied with EC50 acetylcholine
T5 construct: expressed in transfected cells; host or cells: Xenopus oocytes injected with cRNA (pMXT)
Source text: as §1, §3, §4

human α7 nAChR S148A = target: T6, human α7 nAChR S148A (Homo sapiens, UniProt P36544, S170A); test: Two-electrode voltage clamp, α7 nAChR S148A in Xenopus oocytes; type: cell-based; details: co-applied with EC50 acetylcholine
T6 construct: expressed in transfected cells; host or cells: Xenopus oocytes injected with cRNA (pMXT)
Source text: as §1, §3, §4

mouse 5-HT3R = target: mouse 5-HT3R; set-up: method as in PMID 10026168; details: taken from previous study; cited from earlier work
human α7 nAChR S36A = target: T7, human α7 nAChR S36A (Homo sapiens, UniProt P36544, S58A); test: Two-electrode voltage clamp, α7 nAChR S36A in Xenopus oocytes; type: cell-based; details: co-applied with EC50 acetylcholine
T7 construct: expressed in transfected cells; host or cells: Xenopus oocytes injected with cRNA (pMXT)
Source text: as §1, §3, §4

human α7 nAChR L119A = target: T8, human α7 nAChR L119A (Homo sapiens, UniProt P36544, L141A); test: Two-electrode voltage clamp, α7 nAChR L119A in Xenopus oocytes; type: cell-based; details: co-applied with EC50 acetylcholine
T8 construct: expressed in transfected cells; host or cells: Xenopus oocytes injected with cRNA (pMXT)
Source text: as §1, §3, §4

human α7 nAChR W55A = target: T9, human α7 nAChR W55A (Homo sapiens, UniProt P36544, W77A); test: Two-electrode voltage clamp, α7 nAChR W55A in Xenopus oocytes; type: cell-based; details: co-applied with EC50 acetylcholine
T9 construct: expressed in transfected cells; host or cells: Xenopus oocytes injected with cRNA (pMXT)
Source text: as §1, §3, §4

human α7 nAChR Y93A = target: T10, human α7 nAChR Y93A (Homo sapiens, UniProt P36544, Y115A); test: Two-electrode voltage clamp, α7 nAChR Y93A in Xenopus oocytes; type: cell-based; details: co-applied with EC50 acetylcholine
T10 construct: expressed in transfected cells; host or cells: Xenopus oocytes injected with cRNA (pMXT)
Source text: as §1, §3, §4

Sequence of human α1 GlyR S158A (P23415 29-457 S186A): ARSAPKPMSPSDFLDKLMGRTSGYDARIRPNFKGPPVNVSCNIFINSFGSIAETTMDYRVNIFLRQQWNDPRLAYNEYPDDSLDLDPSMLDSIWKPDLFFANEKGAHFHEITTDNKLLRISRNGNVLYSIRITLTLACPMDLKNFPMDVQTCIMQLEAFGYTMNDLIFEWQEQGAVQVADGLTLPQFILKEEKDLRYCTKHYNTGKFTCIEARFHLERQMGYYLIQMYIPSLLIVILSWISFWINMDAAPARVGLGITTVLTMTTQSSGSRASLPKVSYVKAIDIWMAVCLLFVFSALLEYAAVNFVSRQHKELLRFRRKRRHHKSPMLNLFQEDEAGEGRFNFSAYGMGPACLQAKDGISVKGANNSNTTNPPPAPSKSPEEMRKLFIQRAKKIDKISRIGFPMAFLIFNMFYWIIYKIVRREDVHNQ
Sequence of human α1 GlyR F44A (P23415 29-457 F72A): as the sequence (P23415 29-457 S186A) above, with F44A, A158S counted along it
Sequence of human α1 GlyR S129A (P23415 29-457 S157A): as the sequence (P23415 29-457 S186A) above, with S129A, A158S counted along it
Sequence of human α1 GlyR Q67A (P23415 29-457 Q95A): as the sequence (P23415 29-457 S186A) above, with Q67A, A158S counted along it
Sequence of human α1 GlyR Q177A (P23415 29-457 Q205A): as the sequence (P23415 29-457 S186A) above, with A158S, Q177A counted along it
Sequence of human α1 GlyR A101F (P23415 29-457 A129F): as the sequence (P23415 29-457 S186A) above, with A101F, A158S counted along it
Sequence of human α1 GlyR L127A (P23415 29-457 L155A): as the sequence (P23415 29-457 S186A) above, with L127A, A158S counted along it
T2 sequence (P36544 23-502 G189A): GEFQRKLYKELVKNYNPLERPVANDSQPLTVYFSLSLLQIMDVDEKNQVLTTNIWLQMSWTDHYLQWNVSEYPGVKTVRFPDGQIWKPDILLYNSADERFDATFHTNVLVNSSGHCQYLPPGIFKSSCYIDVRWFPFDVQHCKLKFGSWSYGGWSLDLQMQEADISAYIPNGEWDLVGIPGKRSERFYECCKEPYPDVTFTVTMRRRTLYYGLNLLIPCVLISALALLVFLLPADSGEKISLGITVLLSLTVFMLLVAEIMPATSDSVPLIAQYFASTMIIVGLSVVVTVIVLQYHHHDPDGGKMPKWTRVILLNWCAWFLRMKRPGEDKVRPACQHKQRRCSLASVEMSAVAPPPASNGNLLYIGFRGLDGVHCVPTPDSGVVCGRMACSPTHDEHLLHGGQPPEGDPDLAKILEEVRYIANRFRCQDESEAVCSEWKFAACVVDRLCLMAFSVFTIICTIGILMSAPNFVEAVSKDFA
Sequence of Ls-AChBP (P58154 20-229): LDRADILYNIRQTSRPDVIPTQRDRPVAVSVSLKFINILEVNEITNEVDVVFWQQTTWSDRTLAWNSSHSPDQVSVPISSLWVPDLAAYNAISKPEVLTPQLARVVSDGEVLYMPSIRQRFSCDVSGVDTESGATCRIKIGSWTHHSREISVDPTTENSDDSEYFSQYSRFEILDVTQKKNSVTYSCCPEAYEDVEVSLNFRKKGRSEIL
Sequence of human α1 GlyR I210A (P23415 29-457 I238A): as the sequence (P23415 29-457 S186A) above, with A158S, I210A counted along it
Sequence of human α1 GlyR F207A (P23415 29-457 F235A): as the sequence (P23415 29-457 S186A) above, with A158S, F207A counted along it
T1 sequence (P36544 23-502): as the sequence (P36544 23-502 G189A) above, with A167G counted along it
T7 sequence (P36544 23-502 S58A): as the sequence (P36544 23-502 G189A) above, with S36A, A167G counted along it
T10 sequence (P36544 23-502 Y115A): as the sequence (P36544 23-502 G189A) above, with Y93A, A167G counted along it
T8 sequence (P36544 23-502 L141A): as the sequence (P36544 23-502 G189A) above, with L119A, A167G counted along it
Sequence of human α1 GlyR wt (P23415 29-457): as the sequence (P23415 29-457 S186A) above, with A158S counted along it
T5 sequence (P36544 23-502): as the sequence (P36544 23-502 G189A) above, with A167G counted along it
T4 sequence (P36544 23-502 Q139A): as the sequence (P36544 23-502 G189A) above, with Q117A, A167G counted along it
T6 sequence (P36544 23-502 S170A): as the sequence (P36544 23-502 G189A) above, with S148A, A167G counted along it
T3 sequence (P36544 23-502 E215A): as the sequence (P36544 23-502 G189A) above, with A167G, E193A counted along it
T9 sequence (P36544 23-502 W77A): as the sequence (P36544 23-502 G189A) above, with W55A, A167G counted along it

## O=C1C[C@@H]2OCC=C3CN4CC[C@]56c7ccccc7N1[C@H]5[C@H]2[C@H]3C[C@H]46 [strychnine]
α1 GlyR F63A [1]
  mut/wt: 250
α1 GlyR F63A [1]; listed as Strychnine
  mut/wt: 256
α1 GlyR R65A [2]
  IC50: 160 ± 50 nM
Human α7 nAChR
  Ki: 4.85 µM
α1 GlyR F63A [3]
  IC50: 12 µM
Human α1 GlyR F44A
  IC50: 130 ± 4.06 nM
  mut/wt: 3
Human α1 GlyR F44A; listed as Strychnine
  mut/wt: 2.8
Human α1 GlyR S129A
  IC50: 358 ± 144 nM
  mut/wt: ~10
Human α1 GlyR S129A; listed as Strychnine
  mut/wt: 8
Human α1 GlyR S158A
  IC50: 13.8 µM
  mut/wt: 300
Human α1 GlyR S158A; listed as Strychnine
  mut/wt: 294
Human α1 GlyR F207A
  IC50: 5.59 ± 1.89 mM
Human α1 GlyR F207A; IC50 α1 GlyR F207A over wt
  mut/wt: 119,444
Human α1 GlyR Q67A
  IC50: 689 ± 176 nM
  mut/wt: 15
Human α1 GlyR Q67A; listed as Strychnine
  mut/wt: 14.7
Human α1 GlyR I210A
  IC50: 103 ± 19 nM
Human α1 GlyR I210A; IC50 α1 GlyR I210A over wt
  mut/wt: 2.2
Human α1 GlyR L127A
  IC50: 376 ± 69.2 nM
  mut/wt: ~10
Human α1 GlyR L127A; listed as Strychnine
  mut/wt: 8
Human α1 GlyR A101F
  IC50: 583 ± 47.6 nM
  mut/wt: ~10
Human α1 GlyR A101F; listed as Strychnine
  mut/wt: 12
Human α1 GlyR wt
  IC50: 46.8 ± 8.75 nM
Human α1 GlyR Q177A
  IC50: 3.36 ± 0.63 nM
  mut/wt: apparent increase in strychnine-potency
Human α1 GlyR Q177A; listed as Strychnine
  mut/wt: 0.1
Human α1 GlyR Q177A; α1 GlyR Q177A, co-applied with EC50 glycine
  IC50: significant decrease in the IC50-values
α1 GlyR R65A [4]
  mut/wt: 3
α1 GlyR R65A [4]; listed as Strychnine
  mut/wt: 3.4
Ls-AChBP
  Ki: 224 ± 26.3 nM
Human α1 GlyR
  Ki: 16 ± 2 nM

## COc1cc2c3cc1Oc1cc(ccc1O)C[C@@H]1c4c(cc(OC)c(O)c4Oc4ccc(cc4)C[C@@H]3N(C)CC2)CC[N+]1(C)C [d-tubocurarine]
Human α7 nAChR G167A
  IC50: significant decrease in the IC50-values
Human α7 nAChR G167A; read-out: IC50
  IC50: 43 ± 2 nM
Human α7 nAChR E193A
  IC50: 8.1 ± 0.68 µM
Human α7 nAChR Q117A
  IC50: 2280 ± 140 nM
Human α7 nAChR; competition with 3H-methyllycaconitine, human α7 nAChR, read-out: Ki
  Ki: 2.98 µM
5-HT3R
  difference in affinity between human and mouse 5-HT3R: more than 1,000 fold
muscle-type nAChR
  difference in affinity between the two binding sites: 100 fold
Human α7 nAChR wt
  IC50: 1190 ± 170 nM
Human α7 nAChR S148A
  IC50: 176 ± 10.8 µM
Mouse 5-HT3R
  Ki: 138 ± 22 nM
Human α7 nAChR S36A
  IC50: 2250 ± 520 nM
Human α7 nAChR L119A
  IC50: 9.19 ± 2.16 µM
Human α7 nAChR W55A
  IC50: 16.7 ± 0.94 µM
Ls-AChBP
  Ki: 171 ± 18.3 nM
Human α7 nAChR Y93A
  IC50: 7.81 ± 0.98 µM
